These molecules were tested against T1, MAGE-A11:PCF11 interaction (GST-MAGE-A11 and FAM-PCF11_4) (Homo sapiens, UniProt P43364) (assay: TR-FRET primary / single point screen at 15 µM). Details: single point TR-FRET screening of 797 quinoline compounds against MAGE-A11:PCF11.
T1 construct: GST-MAGE-A11 MHD (human MAGE-A11 MHD amino acid 218-429); made in house; host or cells: E. coli BL21(DE3)
T1 sequence (P43364 218-429): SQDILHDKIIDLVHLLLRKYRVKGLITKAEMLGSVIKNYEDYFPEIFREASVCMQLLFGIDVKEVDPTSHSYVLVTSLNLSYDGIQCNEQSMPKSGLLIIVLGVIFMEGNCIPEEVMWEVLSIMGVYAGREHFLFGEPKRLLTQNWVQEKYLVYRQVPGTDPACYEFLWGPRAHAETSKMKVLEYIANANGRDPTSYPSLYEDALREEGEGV
Assay type: binding
Procedure, shortened: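 TR-FRET 520/490 nm emission ratio was read after 90 min at room temperature. Wells held 5 nM GST-MAGE-A11, 5 nM Tb-anti-GST, 200 nM FAM-PCF11_4 and 15 µM compound in Tris pH 7.5 buffer with MgCl2, BSA and DTT. %Inhibition was scaled to DMSO and minus-MAGE-A11 controls.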
In the case of O=S(=O)(c1ccc(Br)cc1)N1CCN(c2ccnc3cc(Cl)ccc23)CC1 [SJ000201754], the “percent inhibition (TR-FRET)” value is reported as -16.7513.
With Clc1ccc2c(NC3CCN(CC4CCCCC4)CC3)ccnc2c1 [SJ000523085] the “percent inhibition (TR-FRET)” value was 15.4273.
With CCCN(CCCNc1c2ccc(Cl)cc2nc2ccc(OC)cc12)CCC(C)(C)C [SJ000522983] the “percent inhibition (TR-FRET)” value was -233.73.
For CCN(CC)CC(=O)Nc1c2c(nc3ccccc13)CCC2 [SJ000049655], the “percent inhibition (TR-FRET)” value was 0.6542.
CCOC(=O)c1cnc2c(C(=O)OC)cccc2c1NCCN1CCOCC1 [SJ000184799] was tested, and the “percent inhibition (TR-FRET)” value was 4.043.
In the case of CCCCN(CCCC)CC(=O)Nc1c2c(nc3ccccc13)N(C)CC2 [SJ000331523], the “percent inhibition (TR-FRET)” value is reported as 2.503.
With CCCN(CCCNc1c2ccc(Cl)cc2nc2ccc(OC)cc12)Cc1cccc(OC)c1 [SJ000520961] the “percent inhibition (TR-FRET)” value was -244.583.
In the case of CCC(C)CN(CCCCNc1ccnc2cc(Cl)ccc12)Cc1ccccc1 (centres unmarked) [SJ000361208], the “percent inhibition (TR-FRET)” value is reported as 35.3677.
In the case of Cc1ccc(CN(CCCCNc2ccnc3cc(Cl)ccc23)Cc2ccccc2)o1 [SJ000312682], the “percent inhibition (TR-FRET)” value is reported as 2.013.
O=C(C[C@H]1CC[C@]2(CC1)OO[C@]1(O2)C2CC3CC(C2)CC1C3)NCCNc1ccnc2cc(Cl)ccc12 [SJ000578361] was tested, and the “percent inhibition (TR-FRET)” value was 28.0142.
With CCCN(CCCNc1c2ccc(Cl)cc2nc2ccc(OC)cc12)CCC(C)c1ccccc1 (centres unmarked) [SJ000522731] the “percent inhibition (TR-FRET)” value was -120.975.
COc1ccc(N2CCN(c3c(S(=O)(=O)c4ccc(C)c(C)c4)cnc4ccc(F)cc34)CC2)cc1 [SJ000117073] was tested, and the “percent inhibition (TR-FRET)” value was -13.2577.
In the case of COc1cccc(CN2CCC(Nc3ccnc4cc(Cl)ccc34)CC2)c1O [SJ000357525], the “percent inhibition (TR-FRET)” value is reported as 9.995.
CCc1ccc2ncc(S(=O)(=O)c3ccc(Cl)cc3)c(N3CCN(CC)CC3)c2c1 [SJ000083968] was tested, and the “percent inhibition (TR-FRET)” value was -19.1318.
COc1ccc(S(=O)(=O)N2CCN(c3ccnc4cc(Cl)ccc34)CC2)cc1 [SJ000199955] was tested, and the “percent inhibition (TR-FRET)” value was -32.0719.
With CC(Nc1c2ccccc2nc2ccccc12)C(=O)NC(CC(N)=O)C(=O)O (centres unmarked) [SJ000016433] the “percent inhibition (TR-FRET)” value was 22.7145.
For CCCN(CCCNc1c2ccc(Cl)cc2nc2ccc(OC)cc12)Cc1cc(OC)ccc1O [SJ000520933], the “percent inhibition (TR-FRET)” value was -150.831.
In the case of CN(C)CC(=O)Nc1c2c(nc3ccccc13)N(C)CC2 [SJ000332030], the “percent inhibition (TR-FRET)” value is reported as 17.0397.
CCN1CCN(c2c(S(=O)(=O)c3ccc(C)cc3)cnc3ccc(Cl)cc23)CC1 [SJ000083966] was tested, and the “percent inhibition (TR-FRET)” value was -4.358.
In the case of COc1ccc(O)c(CN(CCCCNc2ccnc3cc(Cl)ccc23)Cc2ccccc2)c1 [SJ000312696], the “percent inhibition (TR-FRET)” value is reported as 6.634.
For CCCN(CCCCNc1ccnc2cc(Cl)ccc12)Cc1c[nH]c2ccccc12 [SJ000311204], the “percent inhibition (TR-FRET)” value was -3.378.
With COc1ccc2ncc(S(=O)(=O)c3ccc(C)cc3)c(N3CCN(c4ccccc4)CC3)c2c1 [SJ000117048] the “percent inhibition (TR-FRET)” value was -85.5732.
For CCOc1ccc(C(=O)c2cnc3ccc(C)cc3c2N2CCN(CC)CC2)cc1 [SJ000247339], the “percent inhibition (TR-FRET)” value was -10.8066.
CCOc1ccc2ncc(S(=O)(=O)c3ccc(OC)cc3)c(N3CCN(CC)CC3)c2c1 [SJ000083971] was tested, and the “percent inhibition (TR-FRET)” value was -6.389.
In the case of Fc1ccc(CN2CCC(Nc3ccnc4cc(Cl)ccc34)CC2)cc1F [SJ000523089], the “percent inhibition (TR-FRET)” value is reported as -1.958.
For CCc1ccc2ncc(S(=O)(=O)c3ccccc3)c(N3CCN(CC)CC3)c2c1 [SJ000083957], the “percent inhibition (TR-FRET)” value was 3.238.
In the case of C#CCOCC(O)CN1CCN(c2cc(C)nc3ccccc23)CC1 (centres unmarked) [SJ000227655], the “percent inhibition (TR-FRET)” value is reported as 6.55.
COc1ccc2nc3cc(Cl)ccc3c(NCCCNCc3ccc4c(c3)OCO4)c2c1 [SJ000361085] was tested, and the “percent inhibition (TR-FRET)” value was -363.307.
For CCC(C)CNCCCNc1c2ccc(Cl)cc2nc2ccc(OC)cc12 (centres unmarked) [SJ000361093], the “percent inhibition (TR-FRET)” value was -451.494.
For CCc1ccc(S(=O)(=O)c2cnc3ccccc3c2N2CCN(C)CC2)cc1 [SJ000278939], the “percent inhibition (TR-FRET)” value was 11.585.
With O=C(O)c1ccccc1CN(CCCCNc1ccnc2cc(Cl)ccc12)Cc1ccccc1 [SJ000361203] the “percent inhibition (TR-FRET)” value was 4.099.
With O=S(=O)(c1ccc(Cl)cc1)c1cnc2ccc(F)cc2c1N1CCN(c2ccccc2)CC1 [SJ000117055] the “percent inhibition (TR-FRET)” value was 2.112.
COc1ccc2ncc(S(=O)(=O)c3ccc(C)cc3)c(N3CCN(c4ccc(F)cc4)CC3)c2c1 [SJ000117059] was tested, and the “percent inhibition (TR-FRET)” value was -118.524.
With Clc1ccc2c(NCCCCN(Cc3ccccc3)Cc3nccs3)ccnc2c1 [SJ000520448] the “percent inhibition (TR-FRET)” value was -1.698.

Same assay, conditions: single point TR-FRET screening of quinoline compounds against MAGE-A11:PCF11; 15 µM
CCOC(=O)c1cnc2ccc(Br)cc2c1NCCCN1CCOCC1 [SJ000176507] was tested, and the “percent inhibition (TR-FRET)” value was -22.0025.
For CCCN(CCCNc1ccnc2cc(C(F)(F)F)ccc12)CC1CC1 [SJ000361266], the “percent inhibition (TR-FRET)” value was 48.1534.
With Clc1ccc2c(NCCCN(CCCc3ccccc3)Cc3ccccc3)ccnc2c1 [SJ000361185] the “percent inhibition (TR-FRET)” value was 6.074.
For CCC(CC)CN(CCCNc1ccnc2cc(Cl)ccc12)Cc1ccccc1 [SJ000361172], the “percent inhibition (TR-FRET)” value was 22.9132.
With COc1ccc(C(F)(F)F)cc1CN(CCCNc1ccnc2cc(Cl)ccc12)Cc1ccccc1 [SJ000520450] the “percent inhibition (TR-FRET)” value was 23.1782.
COc1ccc(Oc2ccc3c(NCCCNCc4ccco4)ccnc3c2)cc1 [SJ000311218] was tested, and the “percent inhibition (TR-FRET)” value was 36.2507.
CCCN(CCCNc1ccnc2cc(Cl)ccc12)Cc1ccccc1C(F)(F)F [SJ000522745] was tested, and the “percent inhibition (TR-FRET)” value was -38.0341.
With CCCN(CCCNc1ccnc2cc(Cl)ccc12)Cc1cccc(C(F)(F)F)c1 [SJ000523013] the “percent inhibition (TR-FRET)” value was 17.481.
In the case of FC(F)(F)Oc1cccc(CN(CCCNc2ccnc3cc(Cl)ccc23)Cc2ccccc2)c1 [SJ000520464], the “percent inhibition (TR-FRET)” value is reported as 27.7788.
CCCN(CCCNc1c2ccc(Cl)cc2nc2ccc(OC)cc12)Cc1cc(OC)ccc1F [SJ000522965] was tested, and the “percent inhibition (TR-FRET)” value was -81.2358.
In the case of Cn1cc(CNCCCNc2ccnc3cc(C(F)(F)F)ccc23)c2ccccc21 [SJ000521043], the “percent inhibition (TR-FRET)” value is reported as 29.109.
In the case of CCCN(CCCNc1ccnc2cc(Cl)ccc12)Cc1ccc2[nH]ccc2c1 [SJ000522746], the “percent inhibition (TR-FRET)” value is reported as 96.845.
In the case of CCCN(CCCNc1c2ccc(Cl)cc2nc2ccc(OC)cc12)Cc1ccccc1O [SJ000520926], the “percent inhibition (TR-FRET)” value is reported as -91.8376.
c1ccc(CCc2ccc3c(NCCCNCc4ccco4)ccnc3c2)cc1 [SJ000311254] was tested, and the “percent inhibition (TR-FRET)” value was 15.9461.
With CCCN(CCCNc1ccnc2cc(Cl)ccc12)Cc1ccc(C(=O)OC)cc1 [SJ000523042] the “percent inhibition (TR-FRET)” value was 16.7163.
In the case of CCCCNCCCNc1ccnc2cc(Cl)ccc12 [SJ000521027], the “percent inhibition (TR-FRET)” value is reported as 8.4544.
With CCCN(CCCNc1ccnc2cc(Cl)ccc12)Cc1c(C)n(C)n(-c2ccccc2)c1=O [SJ000522755] the “percent inhibition (TR-FRET)” value was 13.6386.
For CCC(CC)CNCCCNc1ccnc2cc(Cl)ccc12 [SJ000361103], the “percent inhibition (TR-FRET)” value was 16.5535.
With CSCCCNCCCNc1ccnc2cc(Cl)ccc12 [SJ000523051] the “percent inhibition (TR-FRET)” value was 14.9659.
With CSC(C)CCNCCCNc1ccnc2cc(C(F)(F)F)ccc12 (centres unmarked) [SJ000361125] the “percent inhibition (TR-FRET)” value was 24.4617.
In the case of CCCN(CCCNc1ccnc2cc(Cl)ccc12)Cc1[nH]cnc1C [SJ000523010], the “percent inhibition (TR-FRET)” value is reported as 12.0487.
Clc1ccc2c(NCCCN(Cc3ccccc3)Cc3ccc(Br)s3)ccnc2c1 [SJ000357461] was tested, and the “percent inhibition (TR-FRET)” value was 27.4987.

Reference: publication PMC7529893, “Structural basis for substrate recognition and chemical inhibition of oncogenic MAGE ubiquitin ligases” (Nature Communications, 2020)
